One molecule from PubChem BioAssay AID488877 (The Scripps Research Institute Molecular Screening Center, 2010) can be followed below.

The test system of the test is Vero cells SARS-CoV infected, viability, ATP luminescence. The test is described as follows: PubChem AID 488877.

Each structure is given as a SMILES string. The source made the active and inactive calls. The rule behind the calls is not given here.

By EC50 is commonly meant the midpoint of the concentration-response curve. Regarding `CC(C)(C)NC(=O)C(c1cccnc1)N(C(=O)c1ccco1)c1ccc(C(C)(C)C)cc1` (stereo unspecified), the EC50 is > 10 µM (inactive).
